In US20250248933A1, “Prophylactic and Therapeutic Agents for Upper Respiratory Tract Infections Caused by Influenza and Other Enveloped Viruses” (priority 2020, published 2025):

What was measured:
[1] = in vivo; cited from earlier work
influenza viruses = settings: determined by the present inventor
common cold germs = settings: cited from earlier work
rhinovirus = settings: cited from earlier work
common colds = settings: 37 zinc-treated subjects; cited from earlier work
rhinoviruses = settings: cited from earlier work

## CCCc1cc(=O)oc2c3c(c4c(c12)OC(C)(C)C=C4)O[C@H](C)[C@@H](C)[C@@H]3O [Calanolide A]
[1]
  safety and tolerability: safe and well tolerated

## CCO [Ethanol, ethanol]
Influenza viruses
  ability to kill influenza viruses: ineffective
Common cold germs
  killing of common cold germs in oral mucosa: known to kill
rhinovirus
  activity against rhinovirus: works well

## zinc
Common colds
  subjects asymptomatic after seven days: 86%
rhinoviruses
  inhibition of replication of rhinoviruses: inhibit the replication
